Reference: US20250352555A1, “METHOD OF INCREASING IMMUNE CELL ACTIVATION AND/OR TREATING CANCER USING DIBENZOXAZEPINONES” (VASCULAR THERAPEUTICS PTY LTD, priority 2022, published 2025)

Columns and labels:
[1] = tested on: p-ERK (Thr^202/Tyr^204); test: Western blotting for p-ERK, A375 melanoma cells; type: cell-based, human; conditions: 10 or 100 nM, 24 h
Protocol: (§1) Western blotting. Cells were treated with compounds and times indicated and total cell lysates were prepared in RIPA buffer. Lysates (10 μg) were resolved by SDS-PAGE and transferred to Immobilon-P polyvinylidene difluoride (PVDF) membranes (Millipore, USA).
(§2) Membranes were blocked with 5% skim milk and incubated with rabbit monoclonal anti-c-Jun (Abcam, cat. no. ab32137; mouse, rat and human reactive) antibody, rabbit monoclonal anti-PD-1 (Abcam, cat. no. ab214421) antibody, mouse monoclonal β-actin antibody (Sigma-Aldrich, cat. no. A5316), anti-phospho-SAPK/JNK (Thr^183/Tyr^185) (98F2) (CST, cat. no. 4671) antibody, anti-phospho-p44/42 MAPK (ERK1/2) (Thr^202/Tyr^204) (D13.14.4E) (CST, cat. no. 4370) antibody, anti-phospho-p38 MAPK (Thr^180/Tyr^182) (D3F9) (CST, cat. no. 4511) antibody, anti-SAPK/JNK antibody (CST, cat. no. 9252), anti-p44/42 MAPK (ERK1/2) (137F5) antibody (CST, cat. no. […] Chemiluminescence was detected using the Western Lightning Chemiluminescence system (Thermo Scientific, USA) and ImageQuant™ LAS 4000 biomolecular imager (GE Healthcare Life Sciences, USA). Band intensity in images generated with the LAS 4000 was quantified using NIH Image J.
(§3) The effect of BT2 on ERK phosphorylation (p-ERK) was evaluated in human melanoma cells given that MAP kinase activation is key to melanoma progression and the paucity of clinically approved ERK inhibitors. […]

[2] = tested on: p-ERK (Thr^202/Tyr^204); test: Western blotting for p-ERK, MeWo melanoma cells; type: cell-based, human; conditions: 10 or 100 nM, 24 h
Protocol: as §1, §2, §3

[3] = tested on: MeWo cells; test: Cell morphology study, MeWo; type: cell-based, human; conditions: 1 μM, 24 h
Protocol: Cell morphology studies. Cells were grown in medium containing 10% FBS in 4-well chamber slides. The following day the cells were incubated in medium containing 10% FBS and vehicle, BT2 or SCH772984 at 1 μM for 24 h, then fixed with 4% paraformaldehyde solution for 15 min. After washing briefly in PBS the cells were stained with hemotoxylin and eosin. The slides were scanned using an Aperio ScanScope XT slide scanner (Leica Biosystems, Mt Waverley, Vic, Australia) and images were captured using ImageScope software (Leica Biosystems).
The morphology of A375 and MeWo cells exposed to 1 μM of BT2 or SCH772984 for 24 h was also assessed.

[4] = tested on: p-ERK; test: Western blotting time course for p-ERK, Jurkat T cells; type: cell-based, human; conditions: Western blot time course
Protocol: as §1
(§4) Membranes were blocked with 5% skim milk and incubated with rabbit monoclonal anti-c-Jun (Abcam, cat. no. ab32137; mouse, rat and human reactive) antibody, rabbit monoclonal anti-PD-1 (Abcam, cat. no. ab214421) antibody, mouse monoclonal β-actin antibody (Sigma-Aldrich, cat. no. A5316), anti-phospho-SAPK/JNK (Thr^183/Tyr^185) (98F2) (CST, cat. no. 4671) antibody, anti-phospho-p44/42 MAPK (ERK1/2) (Thr^202/Tyr^204) (D13.14.4E) (CST, cat. no. 4370) antibody, anti-phospho-p38 MAPK (Thr^180/Tyr^182) (D3F9) (CST, cat. no. 4511) antibody, anti-SAPK/JNK antibody (CST, cat. no. 9252), anti-p44/42 MAPK (ERK1/2) (137F5) antibody (CST, cat. no. 4695), anti-p38 MAPK antibody (CST, cat. no. 9212), anti-DUSP8 antibody (Abcam, cat. no. ab198175) or anti-c-MAF (BLR045F) antibody (Abcam, cat. no. ab243901). […] Chemiluminescence was detected using the Western Lightning Chemiluminescence system (Thermo Scientific, USA) and ImageQuant™ LAS 4000 biomolecular imager (GE Healthcare Life Sciences, USA). Band intensity in images generated with the LAS 4000 was quantified using NIH Image J. […]

[5] = tested on: JUN; test: Western blotting for JUN, MeWo cells; type: cell-based, human; conditions: MeWo cells (BRAF WT), 24 h, dose-dependent
Protocol: as §1, §4

[6] = target: T1, CD28 (Macaca fascicularis, UniProt Q0PDN3); test: Surface plasmon resonance (SPR), Biacore T200; type: binding; conditions: BT2 up to 20 μM (8-point dilution series), 12° C., 20 mM HEPES, 150 mM NaCl, 5% DMSO, pH 7.5
T1 construct: purchased Sino Biological
Protocol: Surface plasmon resonance (SPR). Using a Biacore T200 (Cytiva), CD28 (Sino Biological) was immobilised onto a Series S sensor Chip CM5 (GE) by amine coupling to a level of ˜3000 RU on flow cells 2 and 4 at 25° C., with a flowrate of 10 μl/min. 0.2 M EDC+0.05 M NHS was injected for 420 s followed by CD28 (37.5 μg/ml in 10 mM acetate pH 5) for 450 s with the flowrate reduced to 2 μl/min. Unreacted NHS was blocked with an injection of 1 M ethanolamine-HCl pH 8.5 for 420 s. Flow cells 1 and 3 were used as the reference cells, activated and blocked as described above. Immobilisation running buffer was 20 mM HEPES, 150 mM NaCl, pH 7.5. The SPR run was performed at 12° C. with 20 mM HEPES, 150 mM NaCl, 5% DMSO, pH 7.5 as the running buffer. […] The concentration was confirmed using ^1H 1D NMR. […] Samples were injected for 60 s with a dissociation time of 60 s at a flow rate of 40 μl/min. Solvent correction was performed to correct for excluded volume effects. The integrity of the coupled CD28 was validated by injection of the known binding partner CD80 (Sino Biological) (Waite et al., 2020) (5 point dilution series with 2 μM top concentration).
In T cells, the c-jun promoter is activated by anti-CD28 engagement. CD28, a homodimeric cell surface glycoprotein, is a co-stimulatory signal required for T cell activation. The inventors investigated whether BT2 might interact with CD28. […]

T1 sequence (Q0PDN3 19-152): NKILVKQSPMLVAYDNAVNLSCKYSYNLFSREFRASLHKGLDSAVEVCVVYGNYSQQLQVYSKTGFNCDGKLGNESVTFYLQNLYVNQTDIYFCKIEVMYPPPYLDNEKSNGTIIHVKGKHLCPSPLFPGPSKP

CCOC(=O)Nc1ccc2c(c1)C(=O)N(CC)c1ccccc1O2 [BT2, (10-ethyl-11-oxo-10,11-dihydro-dibenzo[b,f][1,4]oxazepin-2-yl)-carbamic acid ethyl ester]
ERK phosphorylation (p-ERK, Western blot) [1]: suppressed ERK phosphorylation
ERK phosphorylation (p-ERK, Western blot) [2]: suppressed ERK phosphorylation
cell morphology [3]: loss of spindle morphology and cell rounding
levels of ERK phosphorylation [4]: no effect
JUN expression (Western blot) [5]: increased
binding to CD28 (SPR sensorgram) [6]: bound to CD28 in a dose-dependent manner
